This is an account of results in patent US20250100962A1 (CITY OF HOPE, priority 2023, published 2025).

In experiment [1] the test system is CLOCK/Bmal1-mediated transcription. In words: Luciferase assay: 293A cells transfected with Bmal1 and CLOCK, Period2-driven luciferase reporter. It counts as cell-based. To be noted: 0.2 μM for 6 hours, Per2-luciferase reporter. As for the experimental part: Cells were seeded at 4×10^5 concentration on 24 well plates. The seeding density was decided after trying several densities and choosing the one that after 24 h lead to 90% confluence. At 90% confluence cell transfection was performed using Opti-MEMTM Reduced Serum Medium (Gibco-Thermo Fisher CN:31985062) with PGL2, PRL, pcDNA3.0-BMAL1-His, PcDNA3.0-6×Myc-CLOCK (AddGene CN: 47334) pcDNA3.0-3×FLAG-cry2 plasmids and PEI max 40 k (Polysciences Inc CN: 24765-1). After 24 h of transfection, cells were treated with desired compounds and controls in 10% FBS 1% PSG DMEM media for desired times. Cells were extracted with 1×PLB provided in the Dual-Luciferase® Reporter Assay Kit (Promega CN: E1910) and transferred to 96-well black plate to be treated with LARII and Stop & Glo components according to protocol of the Dual-Luciferase® Reporter Assay Kit (Promega CN: E1910). Luminescence was measured on microplate (ELISA) reader (TECAN infinite […]). The mean and standard deviation values were calculated for each well and graphed.

The next experiment deals with U2OS cells. In words: Clock gene and protein expression in U2OS cells (immunoblot, RT-qPCR). It counts as cell-based. The conditions noted are these: 24 h. The procedure:
(§1) Total protein (20-30 μg) was extracted using standard IP Lysis buffer (3% NaCl, 5% Tris-HCl, 10% Glycerol, 0.5% Triton X-10 in Sterile MilliQ water) and resolved on 10% SDS-Page gels followed by western blotting on Immun-Blot PVDF Membranes for Protein Blotting (Bio-rad). Antibodies used were diluted in 5% milk (Labscientific CN: M0841). Membranes were washed with TBS-T [10% TBS, 0.1% Tween™ 20 (Fisher BioReagents CN: BP377-500)]. Images were developed using Luminol solution 1:1 SuperSignal West Pico PLUS Stable Peroxide Solution (Thermo Scientific CN: 1863095) and SuperSignal West Pico PLUS Luminol Enhancer Solution (Thermo Scientific CN: 1863094) on chemiluminescence imager (GE Healthcare Bio-Sciences AB Amersham Imager 680).
(§2) Cells extracted with TRIzol™ Reagent (Ambion CN: 15596018) were collected. RNA extraction was performed with Chloroform (Fisher Chemical CN: C298-500) and Isopropanol (Fisher Chemical CN: A451SK-4) extraction followed by two purification steps with 75% Ethanol (Fisherbrand CN: HC-800-1GAL) and elution in Sterile MilliQ water.
(§3) The RNA concentration was measured using Nanodrop spectrophotometer (Thermo Fisher). Following RNA extraction, retro transcription was performed using RevertAid RT Reverse Transcription Kit (Thermo Fisher CN: K1691) and run on SimpliAmp Thermal Cycler (Thermo Fisher CN: A24811) according to the kit procedure. Quantitative PCR was performed using PowerUp™ SYBR™ Green Master Mix (Thermo Fisher CN: A25742) using a dilution of 5:2:1 master mix, RNA and H2Omq according to the protocol on ViiA 7 Real-Time PCR System (Applied Biosystems). Relative expression levels were determined using the comparative Ct method to normalize target genes to 36B4 internal controls.
(In general: A western blot detects proteins with antibodies after separation by electrophoresis.)

Experiment [2] relates to C3H10T1/2 cells containing Per2::dLuc luciferase reporter. Briefly: Bioluminescence monitoring of Per2::dLuc reporter in C3H10T1/2 cells. It counts as cell-based. The conditions noted are these: 10T1/2 cells. As for the experimental part: Generation of stable adipogenic progenitor cell lines containing Per2::dLuc. 3T3-L1 preadipocytes and the C3H10T1/2 mesenchymal stem cells obtained from ATCC were used for Per2:: dLuc lentiviral transduction and stable clone selection using puromycin, as described previously (Guo et al., 2012). Briefly, cells were transfected with lentiviral packaging plasmids (pSPAX.2 and pMD2.G) and lentivirus vectors Per2::dLuc using PEI Max (Polysciences). At 48 hours post-transfection, lentiviruses were collected. 3T3-L1 and C3H10T1/2 […] cells were infected using collected lentiviral media supplemented with polybrene. 24 hours following lentiviral infection, stable cell lines were selected in the presence of 2 μg/ml puromycin.
Continuous Bioluminescence monitoring of Per2:: dLuc luciferase reporter. 3T3-L1 and C3H10T1/2 cells containing a Per2::dLuc luciferase reporter were generated as described previously (Xiong et al., 2023). […] Raw and subtracted results of real-time bioluminescence recording data for 6 days were exported, and data was calculated as luminescence counts per second, as previously described (Xiong, Li, Nam et al., 2022). […] Briefly, raw data following the first cycle from day 2 to […] were fitted to a linear baseline, and the baseline-subtracted data (polynomial number=1) were fitted to a sine wave, from which period length and goodness of fit and damping constant were determined.

The subject of a further experiment is C2C12 myoblasts. Briefly: Clock and Wnt pathway gene/protein expression in C2C12 myoblasts during myogenic differentiation. It counts as cell-based, mouse. The procedure: as §1, §2, §3
Pictures were taken every day to monitor morphological progression, and proteins and RNA samples were collected on days indicated.

Structures are written as SMILES. Entries after “also recorded” stand apart in the source; their conditions may differ.

`[H]/N=C(\N/C(=N/[H])NCCCCCCNC(=N)NC(=N)Nc1ccc(Cl)cc1)Nc1ccc(Cl)cc1` [CHX, chlorhexidine]: in experiment [1], the “induction of CLOCK/Bmal1-activated transcription” value was ~26%. Further, in the experiment on U2OS cells (RT-qPCR), the “CLOCK and Bmal1 transcripts” value is given as “markedly up-regulated”; the “Dbp, Nr1d1, Nr1d2 and Cry2 transcripts” value was “stimulated”. In addition, in the experiment with U2OS cells (immunoblot), the Bmal1 protein expression result is “elevated Bmal1 expression at 0.2 and 0.5 μM”; the CLOCK protein levels result is given as “sufficient to induce CLOCK protein levels”; the “Rev-erbα (Nr1d1) and Period 2 (Per 2) protein” value was “induced by CHX in a largely dose-dependent manner”. Besides, the clock period length result in experiment [2] was “dose-dependent clock period shortening, with this effect significant only for 1 and 2 μM”. The clock cycling amplitude entry in experiment [2] (1 and 2 μM) is listed as “augment clock cycling amplitude”. Moreover, the “CLOCK and Bmal1 protein levels with targets Rev-erbα and Cry2” value with C2C12 myoblasts (0.5 uM, through 6 days of differentiation) is listed as “robustly stimulated”. Further, the “induction of Wnt10a, Fzd5 and β-catenin in Bmal1-deficient myoblasts” value in the experiment on C2C12 myoblasts (BMKD myoblasts) is reported as “completely abolished in Bmal1-deficient myoblasts; also recorded: abolished in Bmal1-deficient cells”. Moreover, the “induction of Clock, Bmal1, Rev-erbα and Per2 in Bmal1 shRNA (BMKD) cells” value with C2C12 myoblasts (day 4 of myogenic differentiation, vs scrambled control) was “completely abolished in the BMKD cells”. In addition, in the experiment on C2C12 myoblasts (scrambled control (SC) myoblasts, RT-qPCR), the “Wnt10a, Fzd5 and β-catenin expression” value is reported as “significantly induced by CHX at 0.5 μM with tendency toward induction at 0.2 μM”.
